Here are results for 4 compounds from US20180163250A1, “Screening Broths Comprising Esculatin Compounds for the Detection of Specific Microorganisms” (Neogen Corporation, priority 2016, published 2018).

Structures can show the parent of a compound that is named as a salt.

Holding throughout (assay type): cell-based
Experiment [1] has as its system Listeria monocytogenes, NCTC5348 and NCTC10527. Nature of the experiment: Pre- and post-incubation detection of enzymatic activity in Listeria express broth (LAB589). On the procedure:
3,4-cyclohexenoesculatin glucoside, was dissolved at 200 mg/ml in 50:50 mixture of dimethylformamide and water. The mixture was then added to pre-dispensed 10 ml volume samples of Listeria express broth (LAB589 from Lab M limited) as 25 μL additions from the prepared stock solutions. Additional broth samples without added chromogen were prepared and inoculated at the same time as the chromogen containing samples. The stock solution was then stored at −20° C. for 24 hours. A 0.5 Macfarlane standard suspension of Listeria monocytogenes, NCTC5348 and NCTC10527, was prepared from 18-24 hour cultures grown in tryptic soy broth (LAB004 from Lab M Limited) at 37° C. These were diluted so as to inoculate each sample with 100-1000 or 10,000-100,000 cfu. Samples were then incubated at 37° C. for 24 hours. The samples were then observed, and bacterial growth confirmed. 50 μL of a 250/mg/ml stock solution of ferric ammonium citrate was then added to each sample. Samples without 3,4-cyclohexenoesculatin glucoside chromogen were then supplemented with 25 μL additions from the stored 3,4-cyclohexenoesculatin glucoside stock solution and observed at ambient temperature for 30 minutes.

The test system of experiment [2] is Listeria monocytogenes NCTC 10257. Nature of the experiment: Masking of fluorogenic reaction by CHE glucoside and ferric ammonium citrate in broth. The note with it: uv light. On the procedure:
4-methylumbelliferyl-β-D glucopyranoside (MC633 from Sigma Aldrich) was dissolved in water at 100 mg/ml and 25 μL of this stock solution added to pre-dispensed 10 mL volumes of Lab589 (Lab M Limited) and Lab049 (Brain heart infusion broth Lab M limited). Listeria monocytogenes NCTC 10257 were prepared from 18-24 hour cultures grown in tryptic soy broth (LAB004 from Lab M Limited) at 37° C. These were diluted so as to inoculate each sample with 100-1000 cfu. Samples were then incubated at 37° C. for 24 hours. Samples were then observed and confirmed for bacterial growth, and further observed under an ultra violet light for fluorescence. The samples were then supplemented with 3,4-cyclohexenoesculatin glucoside (Biosynth C9218), from a 200 mg/ml in 50:50 mixture of dimethylformamide and water. 50 μL of a 250/mg/ml stock solution of ferric ammonium citrate was added to each sample, observing visually for blackening and under ultra violet light for fluorescence masking after 15 minutes incubation at ambient. Table 5 provides that 3,4-cyclohexenoesculatin glucoside can be used as an additional masking reagent to confirm fluorogenic based broth systems.

The test system of experiment [3] is methicillin resistant staphylococcus aureus strains. Nature of the experiment: Growth and initial color change in MRSA screening broth (LAB588) containing the substrate. To be noted: for Initial color change indicating the presence of MRSA: LAB588 broth with cefoxitin, 100-1000 cfu. The procedure:
(§1) CHE-phosphate, and 3,4-cyclohexenoesculatin diphosphate were dissolved at 200 mg/ml in a 50:50 mixture of dimethylformamide and water. 5-bromo-4-chloroindoxyl phosphate was dissolved at 200 mg/ml in a 50:50 mixture of ethanol and water. The mixtures of compounds were added individually to a MRSA broth (LAB588; Lab M limited) pre-dispensed to 10 ml volumes, after supplementation with cefoxitin selective agent, as 25 μL additions from the prepared stock solutions.
(§2) A 0.5 Macfarlane standard suspension of methicillin resistant staphylococcus aureus strains were prepared from 18-24 h cultures grown in tryptic soy broth (LAB004; Lab M Limited) at 37° C. These were diluted and added to the MRSA broth samples in an amount sufficient to inoculate each sample with 100-1000 colony forming units (cfu). Target concentration was achieved by diluting a culture to a target level and inoculating sets of tubes at different inoculum dilutions so as to achieve the target range. The actual quantity inoculated was confirmed by plating 50 μl of the dilution onto Tryptone soy agar (LAB011) and incubating the plates for 18-24 h at 37° C. and counting the resulting colonies. This information was used to determine which tubes had been inoculated within the target dosing range.
(§3) The broth is designed to selectively indicate a positive presence of MRSA by a yellow color, or a presumptive positive presence of MRSA by an orange color (Table 1). To the CHE-phosphate and 3,4-cyclohexenoesculatin diphosphate was added 50 μL of a 250/mg/ml stock solution of Ferric ammonium citrate and samples were allowed to incubate at ambient temperature for 5 minutes.

For experiment [4], the system named is phosphatase activity of methicillin resistant staphylococcus aureus. Nature of the experiment: Blackening after addition of ferric ammonium citrate (free CHE, phosphatase activity) in MRSA broth. The note with it: for blackening after the addition of ferric ammonium citrate indicating the presence of free 3,4-cyclohexenoesculatin: 5 minutes at ambient temperature after FAC; for Color or masking reaction (blackening reaction, dark precipitate): MRSA broth, after ferric ammonium citrate. On the procedure: as §1, §2, §3

Setting [5] is: L. monocytogenes NCTC 5348 100 cfu, glucoside added post incubation.
[6] abbreviates: L. monocytogenes NCTC 5348 100 cfu, glucoside added pre incubation.
The mark [7] stands for this setting: L. monocytogenes NCTC 5348 10000 cfu, glucoside added post incubation.
Where [8] appears, read: L. monocytogenes NCTC 5348 10000 cfu, glucoside added pre incubation.
[9] abbreviates: L. monocytogenes NCTC 10527 100 cfu, glucoside added post incubation.
[10] abbreviates: L. monocytogenes NCTC 10527 100 cfu, glucoside added pre incubation.
The mark [11] stands for this setting: L. monocytogenes NCTC 10527 10000 cfu, glucoside added post incubation.
Setting [12] is: L. monocytogenes NCTC 10527 10000 cfu, glucoside added pre incubation.

As to `O=c1oc2cc(O)c(O[C@@H]3O[C@H](CO)[C@@H](O)[C@H](O)[C@H]3O)cc2c2c1CCCC2` [3,4-cyclohexenoesculatin glucoside], the “Color t = 0 minutes post iron addition” value in experiment [1] (setting [5]) is reported as “yellow”; in experiment [1] (setting [6]) it was “Black”; in experiment [1] (setting [7]) it was “yellow”; in experiment [1] (setting [8]) it was “Black”; in experiment [1] (setting [9]) it was “yellow”; in experiment [1] (setting [10]), “Black”. The “Color t = 0 minutes post iron addition” value in experiment [1] (setting [11]) is “yellow”; in experiment [1] (setting [12]), “Black”. Besides, the “Color t = 15 minutes post iron addition” value in experiment [1] (setting [5]), in experiment [1] (setting [6]), in experiment [1] (setting [7]), in experiment [1] (setting [8]), in experiment [1] (setting [9]) and in experiment [1] (setting [10]) was “Black” throughout. The “Color t = 15 minutes post iron addition” value in experiment [1] (setting [11]) and in experiment [1] (setting [12]) was “Black” in each case. Further, in experiment [1] (glucoside added post incubation), the “Time to strong black reaction” value is listed as “about 15 minutes”. Moreover, in experiment [1] (samples incubated with the glucoside), the “Time to strong black reaction on the addition of ferric ammonium citrate” value is on record as “instantly”.

As for `Cc1cc(=O)oc2cc(O[C@@H]3O[C@H](CO)[C@@H](O)[C@H](O)[C@H]3O)ccc12` [4-methylumbelliferyl-β-D glucopyranoside], the “Appearance T = 15 minutes post iron addition” value in experiment [2] (LAB049 broth) and in experiment [2] (LAb589 broth) was “fluorescent under uv light” each time. In addition, the “Appearance t = 0 minutes post iron addition” value in experiment [2] (LAB049 broth) and in experiment [2] (LAb589 broth) was “fluorescent under uv light” each time.

As to `O=c1oc2cc(OP(=O)(O)O)c(OP(=O)(O)O)cc2c2c1CCCC2` [Diphosphate, 3,4-cyclohexenoesculatin diphosphate tetra-potassium salt], the “Initial color change indicating the presence of MRSA” value in experiment [3] (MRSA 3), in experiment [3] (MRSA 15), in experiment [3] (MRSA 15A (clinical isolate)), in experiment [3] (MRSA 15B (clinical isolate)), in experiment [3] (MRSA 15C (clinical isolate)) and in experiment [3] (MRSA 16A (clinical isolate)) was “Growth (yellow)” in each case. The “Initial color change indicating the presence of MRSA” value in experiment [3] (MRSA 16B (clinical isolate)), in experiment [3] (MRSA 16C (clinical isolate)) and in experiment [3] (S. aureus NCTC 12493) was “Growth (yellow)” throughout. The “Inhibition of the growth of MRSA” value in experiment [3] (MRSA broth LAB588, summary of Table 1) was “not inhibitory”. Moreover, the “blackening after the addition of ferric ammonium citrate indicating the presence of free 3,4-cyclohexenoesculatin” value in experiment [4] (MRSA 3), in experiment [4] (MRSA 15), in experiment [4] (MRSA 15A (clinical isolate)), in experiment [4] (MRSA 15B (clinical isolate)), in experiment [4] (MRSA 15 C (clinical isolate)) and in experiment [4] (MRSA 16A (clinical isolate)) was “No change” each time. For the same compound, the “blackening after the addition of ferric ammonium citrate indicating the presence of free 3,4-cyclohexenoesculatin” value in experiment [4] (MRSA 16B (clinical isolate)), in experiment [4] (MRSA 16 C (clinical isolate)) and in experiment [4] (S. aureus NCTC 12493) was “No change” each time. Further, the “Color or masking reaction (blackening reaction, dark precipitate)” value in experiment [4] was “does not produce the same dark precipitate”.

In the case of `O=P(O)(O)Oc1c[nH]c2ccc(Br)c(Cl)c12` [Indoxyl phosphate, 5-bromo-4-chloroindoxyl phosphate, reference compound], the “Initial color change indicating the presence of MRSA” value in experiment [3] (MRSA 3), in experiment [3] (MRSA 15), in experiment [3] (MRSA 15A (clinical isolate)), in experiment [3] (MRSA 15B (clinical isolate)), in experiment [3] (MRSA 15C (clinical isolate)) and in experiment [3] (MRSA 16A (clinical isolate)) was “Growth (orange)” throughout. The “Initial color change indicating the presence of MRSA” value in experiment [3] (MRSA 16B (clinical isolate)), in experiment [3] (MRSA 16C (clinical isolate)) and in experiment [3] (S. aureus NCTC 12493) was “Growth (orange)” each time. Besides, the “Color or masking reaction (blackening reaction, dark precipitate)” value in experiment [4] was “no detectable color or masking reaction”.
